Read-outs that look alike come from different tables or passages of the source.
Assays:
[1] = tested on: Key Grass and Sedge Weeds as well as Grass Crops; assay: Post-emergent Test II herbicidal activity (Table 6); type: in vivo; conditions: post-emergence, 336 h; for pest or weed control at 70 g/ha: application rate 70 g ai/ha; for pest or weed control at 140 g/ha: application rate 140 g ai/ha
Procedure, shortened: (§1)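 Greenhouse-grown plants at first or second true leaf stage were sprayed post-emergence with compound in acetone/DMSO-based aqueous spray containing crop oil concentrate and surfactant, at 187 L/ha, highest rate plus ½× to 1/16× dilutions. After 14 d, injury was scored visually versus untreated plants, 0 (none) to 100% (complete kill).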

[2] = tested on: Key Broadleaf Weed and Crop Species; assay: Post-emergent Test II herbicidal activity (Table 5); type: in vivo; conditions: post-emergence, 336 h, post-emergent, 14 days after application; for pest or weed control at 70 g/ha: 70 g ai/ha; for pest or weed control at 140 g/ha: 140 g ai/ha
Procedure, shortened: as §1

[3] = Triticum aestivum, TRZSS (wheat), read-out: Visual Growth Reduction (%) 14 Days After Application, TRZSS
[4] = CYPES: yellow nutsedge (Cyperus esculentus), read-out: Visual Growth Reduction (%) 14 Days After Application, CYPES
[5] = DIGSA: crabgrass (Digitaria sanguinalis), read-out: Visual Growth Reduction (%) 14 Days After Application, DIGSA
[6] = ECHCG: barnyardgrass (Echinochloa crus-galli), read-out: Visual Growth Reduction (%) 14 Days After Application, ECHCG
[7] = ORYSA: rice (Oryza sativa), read-out: Visual Growth Reduction (%) 14 Days After Application, ORYSA
[8] = SETFA: giant foxtail (Setaria faberi), read-out: Visual Growth Reduction (%) 14 Days After Application, SETFA
[9] = SORVU: grain sorghum (Sorghum vulgare), read-out: Visual Growth Reduction (%) 14 Days After Application, SORVU
[10] = ZEAMX: maize, corn (Zea mays), read-out: Visual Growth Reduction (%) 14 Days After Application, ZEAMX
[11] = ABUTH: velvetleaf (Abutilon theophrasti), read-out: Visual Growth Reduction (%) 14 Days After Application ABUTH
[12] = AMARE: redroot pigweed (Amaranthus retroflexus), read-out: Visual Growth Reduction (%) 14 Days After Application AMARE
[13] = BRSNN: oilseed-rape, canola (Brassica napus), read-out: Visual Growth Reduction (%) 14 Days After Application BRSNN
[14] = CHEAL: lambsquarters (Chenopodium album), read-out: Visual Growth Reduction (%) 14 Days After Application CHEAL
[15] = EPHHL: wild poinsettia (Euphorbia heterophylla), read-out: Visual Growth Reduction (%) 14 Days After Application EPHHL
[16] = HELAN: sunflower (Helianthus annuus), read-out: Visual Growth Reduction (%) 14 Days After Application HELAN
[17] = VIOTR: wild pansy (Viola tricolor), read-out: Visual Growth Reduction (%) 14 Days After Application VIOTR

Compound | pest or weed control at 70 g/ha [1, 3] | pest or weed control at 140 g/ha [1, 3] | pest or weed control at 70 g/ha [1, 4] | pest or weed control at 140 g/ha [1, 4] | pest or weed control at 70 g/ha [1, 5] | pest or weed control at 140 g/ha [1, 5] | pest or weed control at 70 g/ha [1, 6] | pest or weed control at 140 g/ha [1, 6] | pest or weed control at 70 g/ha [1, 7] | pest or weed control at 140 g/ha [1, 7] | pest or weed control at 70 g/ha [1, 8] | pest or weed control at 140 g/ha [1, 8] | pest or weed control at 70 g/ha [1, 9] | pest or weed control at 140 g/ha [1, 9] | pest or weed control at 70 g/ha [1, 10] | pest or weed control at 140 g/ha [1, 10] | pest or weed control at 70 g/ha [2, 11] | pest or weed control at 140 g/ha [2, 11] | pest or weed control at 70 g/ha [2, 12] | pest or weed control at 140 g/ha [2, 12] | also measured
COC(=O)c1nc(-c2ccc(OC(F)F)cc2)cc(N)c1Cl [Compound 23] | 0 to 29% | 0 to 29% | 45 to 59% | 75 to 84% | 75 to 84% | 75 to 84% | 85 to 94% | 95 to 100% | 0 to 29% | 0 to 29% | 0 to 29% | 45 to 59% | 85 to 94% | 95 to 100% | 0 to 29% | 0 to 29% | 95 to 100% | 95 to 100% | 95 to 100% | 95 to 100% | pest or weed control at 70 g/ha [2, 13]: 0 to 29%; pest or weed control at 140 g/ha [2, 13]: 0 to 29%; pest or weed control at 70 g/ha [2, 14]: 85 to 94%; pest or weed control at 140 g/ha [2, 14]: 95 to 100%; pest or weed control at 70 g/ha [2, 15]: 95 to 100%; pest or weed control at 140 g/ha [2, 15]: 95 to 100%; pest or weed control at 70 g/ha [2, 16]: 0 to 29%; pest or weed control at 140 g/ha [2, 16]: 85 to 94%; pest or weed control at 70 g/ha [2, 17]: 0 to 29%; pest or weed control at 140 g/ha [2, 17]: 0 to 29%
COC(=O)c1nc(-c2ccc(I)c(F)c2)nc(N)c1OC [Compound 27, Methyl 6-amino-2-(3-fluoro-4-iodophenyl)-5-methoxypyrimidine-4-carboxylate] | 45 to 59% | 45 to 59% | 0 to 29% | 95 to 100% | 0 to 29% | 0 to 29% | 0 to 29% | 0 to 29% | 0 to 29% | 0 to 29% | 0 to 29% | 0 to 29% | 0 to 29% | 30 to 44% | 0 to 29% | 0 to 29% | 60 to 74% | 75 to 84% | 60 to 74% | 75 to 84% | pest or weed control at 70 g/ha [2, 13]: 60 to 74%; pest or weed control at 140 g/ha [2, 13]: 60 to 74%; pest or weed control at 70 g/ha [2, 14]: 85 to 94%; pest or weed control at 140 g/ha [2, 14]: 85 to 94%; pest or weed control at 70 g/ha [2, 15]: 95 to 100%; pest or weed control at 140 g/ha [2, 15]: 95 to 100%; pest or weed control at 70 g/ha [2, 16]: 85 to 94%; pest or weed control at 140 g/ha [2, 16]: 85 to 94%; pest or weed control at 70 g/ha [2, 17]: 95 to 100%; pest or weed control at 140 g/ha [2, 17]: 95 to 100%
C#Cc1ccc(-c2nc(C(=O)OC)c(Cl)c(N)c2Cl)cc1 [Compound 34] | 60 to 74% | 60 to 74% | 60 to 74% | 60 to 74% | 0 to 29% | 45 to 59% | 0 to 29% | 0 to 29% | 0 to 29% | 0 to 29% | 75 to 84% | 85 to 94% | 30 to 44% | 45 to 59% | 60 to 74% | 60 to 74% | 95 to 100% | 95 to 100% | 95 to 100% | 95 to 100% | pest or weed control at 70 g/ha [2, 13]: 85 to 94%; pest or weed control at 140 g/ha [2, 13]: 95 to 100%; pest or weed control at 70 g/ha [2, 14]: 95 to 100%; pest or weed control at 140 g/ha [2, 14]: 95 to 100%; pest or weed control at 70 g/ha [2, 15]: 75 to 84%; pest or weed control at 140 g/ha [2, 15]: 85 to 94%; pest or weed control at 70 g/ha [2, 16]: 95 to 100%; pest or weed control at 140 g/ha [2, 16]: 95 to 100%; pest or weed control at 70 g/ha [2, 17]: 0 to 29%; pest or weed control at 140 g/ha [2, 17]: 0 to 29%
